Data taken from PMC5303205, “Comparative studies on the multi-component pharmacokinetics of Aristolochiae Fructus and honey-fried Aristolochiae Fructus extracts after oral administration in rats” (BMC Complementary and Alternative Medicine, 2017).
Where two headings read alike, the source gives them in different places.

Key:
[1] = Multi-component pharmacokinetics of AAs in rats after oral administration of AF and HAF extracts (HPLC-MS/MS of plasma); set-up: species or system Sprague–Dawley (SD) rats; conditions: Sprague-Dawley, rat, in vivo
Description: An aliquot (100 μl) of rat plasma was spiked with 10.0 μL IS, and vortexed with 300 μL acetic ether for 10 s before the supernatant was transferred into centrifuge tube. The extraction was repeated with 200 μL acetic ether. The combined organic layer was evaporated to dryness under a gentle stream of nitrogen at RT. The residue was resolved in 100 μL methanol and centrifuged at 15,800 × g for 10 min. The supernatant was used for HPLC-MS/MS analysis.
Chromatographic separation was performed by an Acquity C18 column (4.6 × 100 mm,3.5 μm) (Agilent Technologies, USA). The mobile phase was composed of water (containing 10 mM ammonium formate and formic acid, pH 3.0) (solvent A) and ACN (solvent B). The gradient profile of B was: 0–10 min, 35–38%; 10–11 min, 38– 60%; 11–17 min, 60–35%B; 17–18 min, 35%. The flow rate was kept at 0.5 mL/min. The column oven was set at 30 °C and the injection volume was 10 μL.
The mass spectrometer was operated in the positive ion electrospray mode with multiple reaction monitoring (MRM). The optimal MS parameters were set at the following parameters: a desolvation gas temperature of 450 °C, desolvation gas flow of 10 L/min, a nebulizer gas of 40 psi and a capillary voltage of 4000 V. The mass spectrometry conditions of AA I, AA II, AA C, AA D, 7-OH AA I and IS are summarized in Additional file 1: Table S1.
The rats were randomly divided into 6 groups (low, middle and high doses of AF and HAF; n = 6). After a week of acclimation, the animals were fasted for 12 h with free access to water. Then, AF and HAF extracts were administered to the rats. The extracts were suspended in 0.5% CMC–Na solution, and the oral doses (according to AA I in the extracts) were 3.0 mg/kg, 8.0 mg/kg and 15.0 mg/kg, respectively.
Blood samples were collected from the ocular vein using dried heparinized tubes at 0, 0.083, 0.17, 0.33, 0.50, 0.67, 0.83, 1, 2, 4, 6, 8, 10, 12 and 24 h from the start. The animals received fluid replacement (sterile isotonic saline) after every two samplings since the fifth collecting. The samples were then immediately centrifuged at 3100 × g for 10 min. The plasma obtained was frozen and stored at –20 °C until analysis.
All statistical analyses were performed using the SPSS 11.0 software (Chicago, USA). P values <0.05 were considered statistically significant. Pharmacokinetic analysis was performed using the proprietary DAS 3.0 software (Mathematical Pharmacology Professional Committee of China, Shanghai, China).
After the oral administration of AF and HAF extracts, rat plasma samples were prepared and analyzed as described above. Five main AAs can be detected in rat blood with the proposed HPLC-MS/MS method. The mean pharmacokinetic parameters of five AAs in AF and HAF are summarized in Tables 4, 5 and Additional files 5, 6, 7: Tables S4-S6. The maximum concentration (C max) was the experimentally-observed value. The other pharmacokinetic parameters of the five analytes were fitted by DAS 3.0 software.

[2] = Stability of AAs in rat plasma (QC samples, HPLC-MS/MS); assay type: in vitro ADME; conditions: n = 5; for Short-term stability (RSD/%): fresh rat plasma at room temperature for 24 h before sample preparation; for Post-preparation stability (RSD/%): prepared rat plasma samples at room temperature for 24 h; for Long-term stability (RSD/%): rat plasma stored at –20 °C for 14 days; for Freeze-thaw stability (RSD/%): rat plasma, three freeze-thaw cycles (–20 °C 24 h, thawed at room temperature)
Description: The QC samples were assayed under several different conditions to evaluate the stability of AAs in rat plasma. The freeze-thaw stability of the analyte was determined over three freeze-thaw cycles. In each freeze-thaw cycle, the samples were frozen and stored at –20 °C for 24 h, then thawed at room temperature. To evaluate the long-term stability of AAs, the plasma samples were stored at –20 °C for 14 days. For the short-term stability, fresh plasma samples were kept at room temperature for 24 h before the sample preparation. After keeping the samples at room temperature for 24 h, post-preparation stability was tested. Stability was evaluated by comparing the mean concentration of the stored samples with the mean concentration of those prepared freshly. The stability data were acceptable when the bias was within ±15% of the actual value.

[3] = 3 mg/kg, AF extract, low dose (3.0 mg/kg as AA I), analyte dose mg/kg: AA I 3.0, AA II 0.21, AA C 1.42, AA D 1.60, 7-OH AA I 2.33, n = 6
[4] = 3 mg/kg, HAF extract, low dose (3.0 mg/kg as AA I), analyte dose mg/kg: AA I 3.0, AA II 0.26, AA C 1.53, AA D 1.51, 7-OH AA I 2.48, n = 6
[5] = 8 mg/kg, AF extract, mid dose (8.0 mg/kg as AA I), analyte dose mg/kg: AA I 8.0, AA II 0.56, AA C 3.78, AA D 4.26, 7-OH AA I 6.22, n = 6
[6] = 8 mg/kg, HAF extract, mid dose (8.0 mg/kg as AA I), analyte dose mg/kg: AA I 8.0, AA II 0.69, AA C 4.09, AA D 4.03, 7-OH AA I 6.62, n = 6
[7] = 15 mg/kg, AF extract, high dose (15.0 mg/kg as AA I), analyte dose mg/kg: AA I 15.0, AA II 1.05, AA C 7.09, AA D 8.00, 7-OH AA I 11.66, n = 6
[8] = 15 mg/kg, HAF extract, high dose (15.0 mg/kg as AA I), analyte dose mg/kg: AA I 15.0, AA II 1.29, AA C 7.66, AA D 7.56, 7-OH AA I 12.41, n = 6
[9] = high QC conc ng/mL: AA I 1830, AA II 3200, AA C 2980, AA D 3680, 7-OH AA I 3280
[10] = low QC conc ng/mL: AA I 1.83, AA II 8.00, AA C 186.3, AA D 36.8, 7-OH AA I 82.0
[11] = middle QC conc ng/mL: AA I 457.5, AA II 400, AA C 372.5, AA D 460, 7-OH AA I 410

COc1c(O)ccc2c1cc([N+](=O)[O-])c1c(C(=O)O)cc3c(c12)OCO3 [7-OH AA I]
AUC(0-inf) [1, 3]: 602 ng·h/mL
Cmax [1, 3]: 214 ng/mL
Tmax [1, 3]: 0.64 h
CL/F ([1]; 3 mg/kg, AF extract, low dose (3.0 mg/kg as AA I), analyte dose mg/kg: AA I 3.0, AA II 0.21, AA C 1.42, AA D 1.60, 7-OH AA I 2.33, n = 6, read-out: CLz/F (converted)): 71.5 mL/min/kg
Vd/F ([1]; 3 mg/kg, AF extract, low dose (3.0 mg/kg as AA I), analyte dose mg/kg: AA I 3.0, AA II 0.21, AA C 1.42, AA D 1.60, 7-OH AA I 2.33, n = 6, read-out: Vz/F): 24.7 L/kg
half-life ([1]; 3 mg/kg, AF extract, low dose (3.0 mg/kg as AA I), analyte dose mg/kg: AA I 3.0, AA II 0.21, AA C 1.42, AA D 1.60, 7-OH AA I 2.33, n = 6, read-out: t 1/2z (converted)): 3.84 h
AUC(0-inf) [1, 4]: 620 ng·h/mL
Cmax [1, 4]: 216 ng/mL
Tmax [1, 4]: 0.5 h
CL/F ([1]; 3 mg/kg, HAF extract, low dose (3.0 mg/kg as AA I), analyte dose mg/kg: AA I 3.0, AA II 0.26, AA C 1.53, AA D 1.51, 7-OH AA I 2.48, n = 6, read-out: CLz/F (converted)): 81.3 mL/min/kg
Vd/F ([1]; 3 mg/kg, HAF extract, low dose (3.0 mg/kg as AA I), analyte dose mg/kg: AA I 3.0, AA II 0.26, AA C 1.53, AA D 1.51, 7-OH AA I 2.48, n = 6, read-out: Vz/F): 17.5 L/kg
half-life ([1]; 3 mg/kg, HAF extract, low dose (3.0 mg/kg as AA I), analyte dose mg/kg: AA I 3.0, AA II 0.26, AA C 1.53, AA D 1.51, 7-OH AA I 2.48, n = 6, read-out: t 1/2z (converted)): 2.75 h
AUC(0-inf) [1, 5]: 1160 ng·h/mL
Cmax [1, 5]: 404 ng/mL
Tmax [1, 5]: 0.72 h
CL/F ([1]; 8 mg/kg, AF extract, mid dose (8.0 mg/kg as AA I), analyte dose mg/kg: AA I 8.0, AA II 0.56, AA C 3.78, AA D 4.26, 7-OH AA I 6.22, n = 6, read-out: CLz/F (converted)): 92.5 mL/min/kg
Vd/F ([1]; 8 mg/kg, AF extract, mid dose (8.0 mg/kg as AA I), analyte dose mg/kg: AA I 8.0, AA II 0.56, AA C 3.78, AA D 4.26, 7-OH AA I 6.22, n = 6, read-out: Vz/F): 26.1 L/kg
half-life ([1]; 8 mg/kg, AF extract, mid dose (8.0 mg/kg as AA I), analyte dose mg/kg: AA I 8.0, AA II 0.56, AA C 3.78, AA D 4.26, 7-OH AA I 6.22, n = 6, read-out: t 1/2z (converted)): 3.25 h
AUC(0-inf) [1, 6]: 991 ng·h/mL
Cmax [1, 6]: 366 ng/mL
Tmax [1, 6]: 0.67 h
CL/F ([1]; 8 mg/kg, HAF extract, mid dose (8.0 mg/kg as AA I), analyte dose mg/kg: AA I 8.0, AA II 0.69, AA C 4.09, AA D 4.03, 7-OH AA I 6.62, n = 6, read-out: CLz/F (converted)): 109 mL/min/kg
Vd/F ([1]; 8 mg/kg, HAF extract, mid dose (8.0 mg/kg as AA I), analyte dose mg/kg: AA I 8.0, AA II 0.69, AA C 4.09, AA D 4.03, 7-OH AA I 6.62, n = 6, read-out: Vz/F): 25.4 L/kg
half-life ([1]; 8 mg/kg, HAF extract, mid dose (8.0 mg/kg as AA I), analyte dose mg/kg: AA I 8.0, AA II 0.69, AA C 4.09, AA D 4.03, 7-OH AA I 6.62, n = 6, read-out: t 1/2z (converted)): 2.55 h
AUC(0-inf) [1, 7]: 1320 ng·h/mL
Cmax [1, 7]: 566 ng/mL
Tmax [1, 7]: 0.5 h
CL/F ([1]; 15 mg/kg, AF extract, high dose (15.0 mg/kg as AA I), analyte dose mg/kg: AA I 15.0, AA II 1.05, AA C 7.09, AA D 8.00, 7-OH AA I 11.66, n = 6, read-out: CLz/F (converted)): 174 mL/min/kg
Vd/F ([1]; 15 mg/kg, AF extract, high dose (15.0 mg/kg as AA I), analyte dose mg/kg: AA I 15.0, AA II 1.05, AA C 7.09, AA D 8.00, 7-OH AA I 11.66, n = 6, read-out: Vz/F): 52.3 L/kg
half-life ([1]; 15 mg/kg, AF extract, high dose (15.0 mg/kg as AA I), analyte dose mg/kg: AA I 15.0, AA II 1.05, AA C 7.09, AA D 8.00, 7-OH AA I 11.66, n = 6, read-out: t 1/2z (converted)): 3.45 h
AUC(0-inf) [1, 8]: 1130 ng·h/mL
Cmax [1, 8]: 531 ng/mL
Tmax [1, 8]: 0.53 h
CL/F ([1]; 15 mg/kg, HAF extract, high dose (15.0 mg/kg as AA I), analyte dose mg/kg: AA I 15.0, AA II 1.29, AA C 7.66, AA D 7.56, 7-OH AA I 12.41, n = 6, read-out: CLz/F (converted)): 207 mL/min/kg
Vd/F ([1]; 15 mg/kg, HAF extract, high dose (15.0 mg/kg as AA I), analyte dose mg/kg: AA I 15.0, AA II 1.29, AA C 7.66, AA D 7.56, 7-OH AA I 12.41, n = 6, read-out: Vz/F): 47.4 L/kg
half-life ([1]; 15 mg/kg, HAF extract, high dose (15.0 mg/kg as AA I), analyte dose mg/kg: AA I 15.0, AA II 1.29, AA C 7.66, AA D 7.56, 7-OH AA I 12.41, n = 6, read-out: t 1/2z (converted)): 2.94 h
Short-term stability (RSD/%) [2, 9]: 9.1%
Short-term stability (RSD/%) [2, 10]: 7.1%
Short-term stability (RSD/%) [2, 11]: 11.8%
Post-preparation stability (RSD/%) [2, 9]: 6.7%
Post-preparation stability (RSD/%) [2, 10]: 5.1%
Post-preparation stability (RSD/%) [2, 11]: 4.2%
Long-term stability (RSD/%) [2, 9]: 11.1%
Long-term stability (RSD/%) [2, 10]: 2.0%
Long-term stability (RSD/%) [2, 11]: 6.4%
Freeze-thaw stability (RSD/%) [2, 9]: 13.4%
Freeze-thaw stability (RSD/%) [2, 10]: 6.2%
Freeze-thaw stability (RSD/%) [2, 11]: 12.3%
